Data set [1] has as its system Enterovirus 71 (EV71) H strain. The experiment in a line: In vitro anti-EV71 activity (antiviral activity in RD cells, CellTiter-Glo). It counts as cell-based. The conditions noted are these: for in vitro anti-EV71 activity, in words: EV71, RD cells; for IC50: EV71 H strain, RD cells, 4 days, CellTiter-Glo, read-out: IC50. The method, then: According to the mass and molecular weight of the compound to be tested, the compound to be tested was dissolved to 100 mM (mmol/L) with DMSO.
Detection of Antiviral Activity:
(1) First, the compound to be tested was diluted to 800 μM with cell maintenance solution (DMEM+2% FBS, Gibco, catalog numbers: 11995-065, 1600-044), and three-fold gradient dilution was performed to prepare 10 concentrations in total. The diluted compound was added to a 96-well plate with white wall and transparent bottom, 50 μl per well. To both the cell control group and the virus control group, an equal volume of the cell maintenance solution was added.
(2) EV71 virus (purchased from ATCC) was taken out from the −80° C. refrigerator and equilibrated to room temperature.
(3) The virus seed was diluted with a virus growth solution (DMEM+2% FBS, Gibco, catalog numbers: 11995-065, 1600-044) to 100TCID50, the diluted virus seed was added to the 96-well plate of (1), with […] per well. The same volume of the virus growth solution was added to the cell control group.
(4) RD cells (purchased from ATCC) were inoculated at a concentration of 1*10^5/mL into the 96-well plate of (1), with 100 μL per well, to reach a final volume of 200 μL per well. The final concentration of drug was 0.25 times the initial concentration.
(5) RD cells were cultured at 37° C. for 4 days for testing.
(6) The Buffer of CellTiter-Glo® luminescent cell viability assay reagent (Promega) was mixed with the substrate in the dark to prepare a working solution.
(7) The culture medium in the plate was discarded, the plate was dried by patting, 100 μL of the detection reagent was added to each well, and the 96-well plate was shaken on an orbital shaker for 4 minutes to induce cell lysis. After keeping in the dark and subjecting to signal stabilization for 15 minutes, the chemiluminescence unit was detected by using MD5 microplate reader (Molecular Devices), and the plate reading program was performed according to the CellTiter-Glo preset program.
The inhibition rate-concentration curve was fitted to S-curve by using origin8.0 software to calculate the IC50 value of the compound to be tested.
(§1) The formula for calculating the inhibition rates of drug at different dilution degrees was as follows: inhibition rate (%)=(average value of cell control group−value of experimental group)/(average value of cell control group−minimum value of experimental group)*100
(§2) The inhibition rate-concentration curve was fitted to S-curve by using origin8.0 software, and the IC50 value of the compound to be tested was calculated. The same method was used to calculate the TD50 value, and the selection index SI=TD50/IC50 was calculated according to the half maximal inhibitory concentration IC50 and the median toxic dose TD50.
In general terms: In ATP-based viability assays light output follows the ATP content of the culture.

The subject of another data set is RD cells. The experiment in a line: Detection of cytotoxicity in RD cells (CellTiter-Glo). It counts as cell-based. The conditions noted are these: 4 days, CellTiter-Glo, median toxic dose. The method, then:
Detection of Cytotoxicity:
(1) The compound to be tested was diluted to a concentration of 400 μM with the cell maintenance solution, and 3-fold gradient dilution was carried out to obtain 10 concentrations in total.
(2) The diluted compound was added to a 96-well plate with white wall and transparent bottom, with 100 μL per well. An equal volume of the cell maintenance solution was added to the cell control group.
(3) RD cells were inoculated into the above 96-well plate at a concentration of 1*10^5/mL, with 100 μL per well, to reach a final volume of 200 μL per well, and the final concentration of drug was 0.5 times the pretreatment concentration.
(4) The RD cells were cultured at 37° C. for 4 days for testing.
(5) The Buffer of CellTiter-Glo® luminescent cell viability assay reagent was mixed with the substrate in the dark to prepare a working solution.
(6) The culture medium in the plate was discarded, the plate was dried by patting, 100 μL of the detection reagent was added to each well, and the 96-well plate was shaken on an orbital shaker for 4 minutes to induce cell lysis. After keeping in the dark and subjecting to signal stabilization for 15 minutes, the chemiluminescence unit was detected, and the plate reading program was performed according to the CellTiter-Glo preset program.
as §1, §2

Consider 20 molecules from patent publication US20220220106A1, “QUINOLINE COMPOUNDS AND PHARMACEUTICAL COMPOSITIONS AND USES THEREOF” (Academy of Military Medical Sciences, priority 2019, published 2022).

Read-outs that look alike come from different tables or passages of the source.

As usually defined, the IC50 is the concentration needed to halve the response being measured. As a reminder, the melting point is the temperature, or range, at which the solid turns liquid. Molecule `CC(=O)/C=C/c1cnc2ccc(-c3ccc(N)nc3)cc2c1Nc1cccc(C(F)(F)F)c1` [HTL-2-34, (E)-6-[3-(6-amino)pyridyl]-4-[3-(trifluoromethyl)phenyl]aminoquinoline-3-butenone] registered a melting point of 172 to 175 °C. Moreover, the “in vitro anti-EV71 activity, in words” value in data set [1] was “moderate anti-EV71 activity”. For the same molecule, in data set [1] (Enterovirus A, 96 h), the half-maximal inhibitory concentration (IC50) is 1.78 ± 0.03 µM. The molecule further displayed a TD50 in the data set with RD cells of 4.99 ± 1.55 µM.

`CC(=O)/C=C/c1cnc2ccc(-c3cccc(N)c3)cc2c1Nc1cccc(C(F)(F)F)c1` [HTL-2-42, (E)-6-(3-aminophenyl)-4-[3-(trifluoromethyl)phenyl]aminoquinoline-3-butenone]: the melting point was 184 to 186 °C. In addition, in data set [1] (Enterovirus A, 96 h), the IC50 is more than 200 µM. This molecule came in with a TD50 with RD cells of more than 200 µM.

As to `CC(=O)/C=C/c1cnc2ccc(-c3ccncc3)cc2c1Nc1cccc(C(F)(F)F)c1` [HTL-3-04, (E)-6-(4-pyridyl)-4-[3-(trifluoromethyl)phenyl]aminoquinoline-3-butenone], the melting point was 192 to 195 °C. Besides, the IC50 in data set [1] (Enterovirus A, 96 h) is more than 200 µM. In the data set with RD cells, this molecule displayed a TD50 of more than 200 µM.

In the case of `COc1cncc(-c2ccc3ncc(/C=C/C(C)=O)c(Nc4cccc(C(F)(F)F)c4)c3c2)c1` [HTL-3-07, (E)-6-[3-(5-methoxy)pyridyl]-4-[3-(trifluoromethyl)phenyl]aminoquinoline-3-butenone], the melting point lay in the range of 164 to 167 °C. In addition, the IC50 in data set [1] (Enterovirus A, 96 h) is more than 200 µM. This molecule also returned a TD50 in the data set with RD cells of more than 200 µM.

In turn, `CC(=O)/C=C/c1cnc2ccc(-c3ccc(O)cc3)cc2c1Nc1cccc(C(F)(F)F)c1` [HTL-3-11, (E)-6-(4-hydroxy)phenyl-4-[3-(trifluoromethyl)phenyl]aminoquinoline-3-butenone] came in with a melting point of 218 to 222 °C. The IC50 in data set [1] (Enterovirus A, 96 h) is more than 200 µM. Also, the TD50 with RD cells is more than 200 µM.

The molecule `CC(=O)/C=C/c1cnc2ccc(-c3ccc(F)cc3)cc2c1Nc1cccc(C(F)(F)F)c1` [HTL-3-12, (E)-6-(4-fluoro)phenyl-4-[3-(trifluoromethyl)phenyl]aminoquinoline-3-butenone] showed a melting point of 167 to 169 °C. In data set [1] (Enterovirus A, 96 h), the IC50 is more than 200 µM. The molecule further returned a TD50 with RD cells of more than 200 µM.

Turning to `CC(=O)/C=C/c1cnc2ccc(-c3ccc(C#N)cc3)cc2c1Nc1cccc(C(F)(F)F)c1` [HTL-3-15, (E)-6-(4-cyano)phenyl-4-[3-(trifluoromethyl)phenyl]aminoquinoline-3-butenone], the melting point is 173 to 174 °C. Moreover, the IC50 in data set [1] (Enterovirus A, 96 h) is more than 200 µM. In the data set on RD cells, this molecule showed a TD50 of more than 200 µM.

Take `CCOc1cccc(-c2ccc3ncc(/C=C/C(C)=O)c(Nc4cccc(C(F)(F)F)c4)c3c2)c1` [HTL-3-16, (E)-6-(3-ethoxy)phenyl-4-[3-(trifluoromethyl)phenyl]aminoquinoline-3-butenone]: the melting point lay within 184 to 185 °C. The IC50 in data set [1] (Enterovirus A, 96 h) is more than 200 µM. In addition, in the data set on RD cells, the TD50 is 0.83 ± 0.79 µM.

`CC(=O)/C=C/c1cnc2ccc(-c3ccc(C(F)(F)F)cc3)cc2c1Nc1cccc(C(F)(F)F)c1` [HTL-3-18, (E)-6-[4-(trifluoromethyl)phenyl]-4-[3-(trifluoromethyl)phenyl]aminoquinoline-3-butenone] showed a melting point of 189 to 191 °C. In addition, the IC50 in data set [1] (Enterovirus A, 96 h) is more than 200 µM. The same molecule showed a TD50 in the data set with RD cells of more than 200 µM.

Consider `CC(=O)/C=C/c1cnc2ccc(-c3ccoc3)cc2c1Nc1cccc(C(F)(F)F)c1` [HTL-3-22, (E)-6-(3-furyl)-4-[3-(trifluoromethyl)phenyl]aminoquinoline-3-butenone], for which the melting point lay within 151 to 154 °C. Further, the IC50 in data set [1] (Enterovirus A, 96 h) is more than 200 µM. Also, in the data set on RD cells, the TD50 was found to be 1.55 ± 1.03 µM.

In the case of `CC(=O)/C=C/c1cnc2ccc(-c3cccs3)cc2c1Nc1cccc(C(F)(F)F)c1` [HTL-3-24, (E)-6-(2-thienyl)-4-[3-(trifluoromethyl)phenyl]aminoquinoline-3-butenone], the melting point lay in the range of 181 to 185 °C. In addition, the IC50 in data set [1] (Enterovirus A, 96 h) is more than 200 µM. The molecule also registered a TD50 in the data set on RD cells of 1.35 ± 1.16 µM.

`CC(=O)/C=C/c1cnc2ccc(-c3cnc4ccccc4c3)cc2c1Nc1cccc(C(F)(F)F)c1` [HTL-3-25, (E)-6-(3-quinolyl)-4-[3-(trifluoromethyl)phenyl]aminoquinoline-3-butenone] showed a melting point of 173 to 176 °C. Besides, the IC50 in data set [1] (Enterovirus A, 96 h) was more than 200 µM. In addition, the TD50 in the data set on RD cells amounted to 0.68 ± 0.21 µM.

`CC(=O)/C=C/c1cnc2ccc(-c3cn[nH]c3)cc2c1Nc1cccc(C(F)(F)F)c1` [HTL-3-26, (E)-6-(1H-4-pyrazolyl)-4-[3-(trifluoromethyl)phenyl]aminoquinoline-3-butenone] yielded a melting point of 177 to 179 °C. Besides, the “in vitro anti-EV71 activity, in words” value in data set [1] is reported as “moderate anti-EV71 activity”. The IC50 in data set [1] (Enterovirus A, 96 h) stood at 0.85 ± 0.03 µM. This molecule displayed a TD50 in the data set with RD cells of 1.43 ± 1.62 µM.

Molecule `CC(=O)/C=C/c1cnc2ccc(-c3ccc(F)c(C)c3)cc2c1Nc1cccc(C(F)(F)F)c1` [HTL-3-32, (E)-6-(4-fluoro-3-methyl)phenyl-4-[3-(trifluoromethyl)phenyl]aminoquinoline-3-butenone] had a melting point of 209 to 210 °C. For the same molecule, the IC50 in data set [1] (Enterovirus A, 96 h) is more than 200 µM. The molecule also returned a TD50 with RD cells of 1.52 ± 0.87 µM.

Molecule `CC(=O)/C=C/c1cnc2ccc(-c3ccc(F)cc3F)cc2c1Nc1cccc(C(F)(F)F)c1` [HTL-3-33, (E)-6-(2,4-difluoro)phenyl-4-[3-(trifluoromethyl)phenyl]aminoquinoline-3-butenone] displayed a melting point of 162 to 164 °C. Besides, in data set [1] (Enterovirus A, 96 h), the IC50 was more than 200 µM. The TD50 in the data set on RD cells is 0.72 ± 0.66 µM.

`CC(=O)/C=C/c1cnc2ccc(-c3ccc(F)c(F)c3)cc2c1Nc1cccc(C(F)(F)F)c1` [HTL-3-34, (E)-6-(3,4-difluoro)phenyl-4-[3-(trifluoromethyl)phenyl]aminoquinoline-3-butenone] showed a melting point of 210 to 213 °C. Besides, the IC50 in data set [1] (Enterovirus A, 96 h) was more than 200 µM. This molecule also had a TD50 in the data set on RD cells of 3.02 ± 0.91 µM.

As to `CC(=O)/C=C/c1cnc2ccc(-c3cccc(Cl)c3)cc2c1Nc1cccc(C(F)(F)F)c1` [HTL-3-36, (E)-6-(3-chloro)phenyl-4-[3-(trifluoromethyl)phenyl]aminoquinoline-3-butenone], the melting point lay in the range of 182 to 183 °C. For the same molecule, the IC50 in data set [1] (Enterovirus A, 96 h) was more than 200 µM. In addition, the TD50 with RD cells was determined as 4.65 ± 3.50 µM.

Molecule `CC(=O)/C=C/c1cnc2ccc(-c3ccc(Cl)cc3)cc2c1Nc1cccc(C(F)(F)F)c1` [HTL-3-37, (E)-6-(4-chloro)phenyl-4-[3-(trifluoromethyl)phenyl]aminoquinoline-3-butenone] came in with a melting point of 197 to 199 °C. The IC50 in data set [1] (Enterovirus A, 96 h) is more than 200 µM. For the same molecule, the TD50 in the data set with RD cells turned out to be 1.88 ± 0.46 µM.

`O=c1ccc2cnc3ccc(Nc4ccc(C(F)(F)F)cc4)cc3c2n1-c1cccc(C(F)(F)F)c1` [HTL-6-16, 9-[4-(trifluoromethyl)phenyl]imino-2-oxo-1-[3-(trifluoromethyl)phenyl]-1,2-dihydrobenzo[h][1,6]naphthyridine]: the IC50 in data set [1] (Enterovirus A, 96 h) was more than 200 µM. The molecule also came in with a TD50 with RD cells of 7.06 ± 0.23 µM.

In the case of “(E)-6-[3-(N-6-benzyloxyamido)pyridyl]-4-[3-(trifluoromethyl)phenyl]aminoquinoline-3-butenone [HTL-7-22]”, the IC50 in data set [1] was more than 200 µM. In the data set with RD cells, the TD50 stood at 9.4 ± 8.0 µM.
